Laboratory results from PubChem BioAssay AID588622 (NMMLSC, 2011).
Calls of active or inactive are those of the source. The rule behind the calls is not given here.

What follows are molecules tested against RacACT (assay: GTPase panel nucleotide binding inhibition – biochemical, bead flow cytometry, Mg non-chelator buffer, round 2, SAR follow-up (AID 588622)). Details: bead-based flow cytometry multiplex GTP binding.

Question: Which EC50 does the source give for `CCC1(C)Cc2c(sc(NC(=S)NC(=O)c3ccccc3)c2C(=O)O)CO1` (stereo not given) here?
Answer: The EC50 was 46 nM.

Question: How did the EC50 turn out when `CC1(C)Cc2c(sc(NC(=S)NC(=O)c3ccccc3F)c2C(=O)O)CO1` was run?
Answer: Its EC50 is 455 nM.

Question: Which EC50 does the source give for `Cc1ccc(C(=O)NC(=S)Nc2sc3c(c2C(=O)O)CC(C)(C)OC3)cc1` here?
Answer: The EC50 was 139 nM.

Question: How did the EC50 turn out when `CC1(C)Cc2c(sc(NC(=S)NC(=O)c3ccc(Br)cc3)c2C(=O)O)CO1` was run?
Answer: The EC50 was 455 nM.

Same assay, conditions: bead-based flow cytometry multiplex GTP binding, at 100 µM (top of the series)

Question: `CC1(C)Cc2c(sc(NC(=S)NC(=O)c3cccc(Br)c3)c2C(=O)O)CO1` was tested. Which “% response (lower = inhibition)” value did it give?
Answer: The value was “inactive”.

Question: For `CC1(C)Cc2c(sc(NC(=S)NC(=O)c3cccc(F)c3)c2C(=O)O)CO1`, which “% response (lower = inhibition)” value is on record?
Answer: The value was “inactive”.

Question: How did the “% response (lower = inhibition)” value turn out when `CC1(C)Cc2c(sc(NC(=S)Nc3ccccc3)c2C(=O)O)CO1` was run?
Answer: The value was “inactive”.

Question: With `COc1cccc(C(=O)NC(=S)Nc2sc3c(c2C(=O)O)CC(C)(C)OC3)c1` as the molecule, how does the “% response (lower = inhibition)” value read?
Answer: Its value is “inactive”.

Question: How did the “% response (lower = inhibition)” value turn out when `COc1ccccc1C(=O)NC(=S)Nc1sc2c(c1C(=O)O)CC(C)(C)OC2` was run?
Answer: The value was “inactive”.

Question: With `Cc1cccc(C(=O)NC(=S)Nc2sc3c(c2C(=O)O)CC(C)(C)OC3)c1` as the molecule, how does the “% response (lower = inhibition)” value read?
Answer: The value was “inactive”.

The molecules below were run against RacWT in the same assay as above. Details: bead-based flow cytometry multiplex GTP binding.

Question: For `COc1ccc(C(=O)NC(=S)Nc2sc3c(c2C(=O)O)CC(C)(C)OC3)cc1`, which EC50 is on record?
Answer: The EC50 was 197 nM.

Question: Which EC50 does the source give for `CC(C)(C)C1Cc2c(sc(NC(=S)NC(=O)c3ccccc3)c2C(=O)O)CO1` (stereo not given) here?
Answer: Its EC50 is 139 nM.

Question: `O=C(NC(=S)Nc1sc2c(c1C(=O)O)CC1(CCCC1)OC2)c1ccccc1` was tested. Which EC50 did it give?
Answer: Its EC50 is 56 nM.

Question: Which EC50 does the source give for `CC1(C)Cc2c(sc(NC(=S)NC(=O)C3CCCCC3)c2C(=O)O)CO1` here?
Answer: Its EC50 is 495 nM.

Question: Which EC50 does the source give for `CC1(C)Cc2c(sc(NC(=S)NC(=O)c3cccc(F)c3)c2C(=O)O)CO1` here?
Answer: Its EC50 is 491 nM.

Question: With `Cc1ccccc1C(=O)NC(=S)Nc1sc2c(c1C(=O)O)CC(C)(C)OC2` as the molecule, how does the EC50 read?
Answer: The EC50 was 438 nM.

Question: With `CC1(C)Cc2c(sc(NC(=S)NC(=O)c3ccc(F)cc3)c2C(=O)O)CO1` as the molecule, how does the EC50 read?
Answer: Its EC50 is 147 nM.

Question: For `CC1(C)Cc2c(sc(NC(=S)NC(=O)c3ccco3)c2C(=O)O)CO1`, which EC50 is on record?
Answer: The EC50 was 59 nM.

Question: With `CC1(C)Cc2c(sc(NC(=S)NC(=O)c3cccs3)c2C(=O)O)CO1` as the molecule, how does the EC50 read?
Answer: Its EC50 is 29 nM.

Question: `CC1(C)CCc2sc(NC(=S)NC(=O)c3ccccc3)c(C(=O)O)c2C1` was tested. Which EC50 did it give?
Answer: Its EC50 is 48 nM.

Question: `CCC1(C)Cc2c(sc(NC(=S)NC(=O)c3ccccc3)c2C(=O)O)CO1` (stereo not given) was tested. Which EC50 did it give?
Answer: The EC50 was 53 nM.

Question: With `CC1(C)Cc2c(sc(NC(=S)NC(=O)c3ccccc3F)c2C(=O)O)CO1` as the molecule, how does the EC50 read?
Answer: The EC50 was 452 nM.

Question: `Cc1ccc(C(=O)NC(=S)Nc2sc3c(c2C(=O)O)CC(C)(C)OC3)cc1` was tested. Which EC50 did it give?
Answer: The EC50 was 147 nM.

Question: For `CC1(C)Cc2c(sc(NC(=S)NC(=O)c3ccc(Br)cc3)c2C(=O)O)CO1`, which EC50 is on record?
Answer: The EC50 was 391 nM.

Same assay, conditions: bead-based flow cytometry multiplex GTP binding, at 100 µM (top of the series)

Question: With `CC1(C)Cc2c(sc(NC(=S)NC(=O)c3cccc(Br)c3)c2C(=O)O)CO1` as the molecule, how does the “% response (lower = inhibition)” value read?
Answer: Its value is “inactive”.

Question: How did the “% response (lower = inhibition)” value turn out when `CC1(C)Cc2c(sc(NC(=S)Nc3ccccc3)c2C(=O)O)CO1` was run?
Answer: The value was “inactive”.

Question: How did the “% response (lower = inhibition)” value turn out when `COc1cccc(C(=O)NC(=S)Nc2sc3c(c2C(=O)O)CC(C)(C)OC3)c1` was run?
Answer: The value was “inactive”.

Question: `CC1(C)Cc2c(sc(NC(=S)NC(=O)c3ccccc3Br)c2C(=O)O)CO1` was tested. Which “% response (lower = inhibition)” value did it give?
Answer: The value was “inactive”.

Question: `COc1ccccc1C(=O)NC(=S)Nc1sc2c(c1C(=O)O)CC(C)(C)OC2` was tested. Which “% response (lower = inhibition)” value did it give?
Answer: Its value is “inactive”.

Question: Which “% response (lower = inhibition)” value does the source give for `Cc1cccc(C(=O)NC(=S)Nc2sc3c(c2C(=O)O)CC(C)(C)OC3)c1` here?
Answer: The value was “inactive”.

These molecules were tested against RhoWT in the same assay as above. Details: bead-based flow cytometry multiplex GTP binding.

Question: With `COc1ccc(C(=O)NC(=S)Nc2sc3c(c2C(=O)O)CC(C)(C)OC3)cc1` as the molecule, how does the EC50 read?
Answer: Its EC50 is 213 nM.

Question: How did the EC50 turn out when `CC(C)(C)C1Cc2c(sc(NC(=S)NC(=O)c3ccccc3)c2C(=O)O)CO1` (stereo not given) was run?
Answer: The EC50 was 197 nM.

Question: For `O=C(NC(=S)Nc1sc2c(c1C(=O)O)CC1(CCCC1)OC2)c1ccccc1`, which EC50 is on record?
Answer: The EC50 was 101 nM.

Question: How did the EC50 turn out when `CC1(C)Cc2c(sc(NC(=S)NC(=O)C3CCCCC3)c2C(=O)O)CO1` was run?
Answer: Its EC50 is 814 nM.

Question: With `CC1(C)Cc2c(sc(NC(=S)NC(=O)c3cccc(F)c3)c2C(=O)O)CO1` as the molecule, how does the EC50 read?
Answer: The EC50 was 599 nM.

Question: `Cc1ccccc1C(=O)NC(=S)Nc1sc2c(c1C(=O)O)CC(C)(C)OC2` was tested. Which EC50 did it give?
Answer: The EC50 was 486 nM.

Question: With `CC1(C)Cc2c(sc(NC(=S)NC(=O)c3ccc(F)cc3)c2C(=O)O)CO1` as the molecule, how does the EC50 read?
Answer: The EC50 was 112 nM.

Question: With `CC1(C)Cc2c(sc(NC(=S)NC(=O)c3ccco3)c2C(=O)O)CO1` as the molecule, how does the EC50 read?
Answer: The EC50 was 92 nM.

Question: Which EC50 does the source give for `CC1(C)Cc2c(sc(NC(=S)NC(=O)c3cccs3)c2C(=O)O)CO1` here?
Answer: Its EC50 is 33 nM.

Question: With `CC1(C)CCc2sc(NC(=S)NC(=O)c3ccccc3)c(C(=O)O)c2C1` as the molecule, how does the EC50 read?
Answer: Its EC50 is 62 nM.

Question: `COc1cccc(C(=O)NC(=S)Nc2sc3c(c2C(=O)O)CC(C)(C)OC3)c1` was tested. Which EC50 did it give?
Answer: The EC50 was 292 nM.

Question: With `CC1(C)Cc2c(sc(NC(=S)NC(=O)c3ccccc3Br)c2C(=O)O)CO1` as the molecule, how does the EC50 read?
Answer: Its EC50 is 1330 nM.

Question: With `CCC1(C)Cc2c(sc(NC(=S)NC(=O)c3ccccc3)c2C(=O)O)CO1` (stereo not given) as the molecule, how does the EC50 read?
Answer: The EC50 was 46 nM.

Question: For `Cc1cccc(C(=O)NC(=S)Nc2sc3c(c2C(=O)O)CC(C)(C)OC3)c1`, which EC50 is on record?
Answer: Its EC50 is 1450 nM.

Question: Which EC50 does the source give for `CC1(C)Cc2c(sc(NC(=S)NC(=O)c3ccccc3F)c2C(=O)O)CO1` here?
Answer: Its EC50 is 431 nM.

Question: With `Cc1ccc(C(=O)NC(=S)Nc2sc3c(c2C(=O)O)CC(C)(C)OC3)cc1` as the molecule, how does the EC50 read?
Answer: The EC50 was 131 nM.

Question: With `CC1(C)Cc2c(sc(NC(=S)NC(=O)c3ccc(Br)cc3)c2C(=O)O)CO1` as the molecule, how does the EC50 read?
Answer: The EC50 was 475 nM.

Same assay, conditions: bead-based flow cytometry multiplex GTP binding, at 100 µM (top of the series)

Question: How did the “% response (lower = inhibition)” value turn out when `CC1(C)Cc2c(sc(NC(=S)NC(=O)c3cccc(Br)c3)c2C(=O)O)CO1` was run?
Answer: Its value is “inactive”.

Question: For `CC1(C)Cc2c(sc(NC(=S)Nc3ccccc3)c2C(=O)O)CO1`, which “% response (lower = inhibition)” value is on record?
Answer: The value was “inactive”.

Question: How did the “% response (lower = inhibition)” value turn out when `COc1ccccc1C(=O)NC(=S)Nc1sc2c(c1C(=O)O)CC(C)(C)OC2` was run?
Answer: Its value is “inactive”.
